Experimental data reported in patent US9468670B2, “Melatonin-based treatment and diagnosis of bile duct disease” (Texas A&M University System, priority 2011, dated 2016).
Marks after values point to notes of the source that are not given here.

Tests used:
[1] = Liver and body weight of nude mice bearing Mz-ChA-1 tumors; assay type: in vivo, nude (nu/nu) mice; settings: 4 mg/kg BW IP three times a week
Description: Experiments were performed to evaluate the in vivo effect of melatonin on the growth of cholangiocarcinoma cell lines implanted in the flanks of athymic mice (Francis H et al., 2009). Male BALB/c 6-wk-old nude (nu/nu) mice (Taconic Farms. Hudson, N.Y.) were kept in a temperature-controlled environment (20-22° C.) with 12-hr light-dark cycles, fed ad libitum standard mouse chow, and with free access to drinking water. Mz-ChA-1 cells (5×10^6) were suspended in 0.2 ml of extracellular matrix gel and injected subcutaneously in the rear flanks of the nude mice. After the establishment of the tumor (one week with a tumor size of ˜5 mm^3) mice (n=4) were treated with vehicle (5% ethanol in water) or melatonin (4 mg/kg BW, dissolved in 5% aqueous ethanol solution) (Sewerynek et al., 1995) by IP injections three times a week. Tumor variables were measured three times a week by an electronic caliper, and volume was determined as follows: tumor volume (mm^3)=0.5×[length (mm)×width (mm)×height (mm)]. The measurements started from the first week when the tumor mass was established. After 43 days of treatment, were anesthetized with sodium pentobarbital (50 mg/kg BW IP) and tumor tissues were harvested from the flanks of the mice. Heart, liver, and kidney tissues were collected for evaluation of organ damage by H&E staining of paraffin-embedded sections ([…]). All experiments were conducted under the guidelines of the Scott & White and Texas A&M HSC IACUC Committee. Tumors were allowed to grow until maximum allowable tumor burden was reached as set forth by the Scott & White and Texas A&M HSC IACUC tumor burden policy. Tumor tissues were fixed for 4 hr in 10% buffered formalin and embedded in low-temperature fusion paraffin. […] Semiquantitative analysis for these markers was evaluated by image-analysis software, Image-Pro Plus (Media Cybernetics, Silver Springs, Md.) (Lejeune et al., 2008). Three randomly chosen fields were calculated for statistics.

AANAT [2] = experiment: Expression of AANAT in liver sections, cholangiocytes, pineal gland and small intestine (immunohistochemistry, real-time PCR); assay type: in vivo, rat
Description: Male Fischer 344 rats (150-175 gm) were purchased from Charles River Laboratories (Wilmington, Mass.) and housed at 22° C. with 12:12 hr light/dark cycles. The animals had free access to standard chow and drinking water. […] Animal experiments were performed in accordance with a protocol approved by the Scott & White and Texas A&M Health Science Center IACUC. In separate experiments, normal rats treated with Vivo-Morpholino sequences of AANAT (5'-[…] NO:1), to reduce the biliary expression of AANAT) or Morpholino mismatched (5'-[…] NO:2)) (Gene Tools LCC) (1 mg/Kg BW/day) for 1 week via an implanted portal vein catheter. Serum, liver tissue, cholangiocytes, kidney, spleen, small intestine, stomach and heart were collected. Since our goal was to knock-down AANAT expression in the liver without inhibiting AANAT expression in other organs, we used a lower dose (1 mg/Kg/day) of Vivo-Morpholino than that described in the original study (3.0 mg/kg/day (Arora et al., 2002). This approach minimizes the amount of Vivo-Morpholino that circulates outside of the liver after slow infusion into the portal vein. See below for the surgical procedure for the implantation of the portal vein catheter by which AANAT Vivo-Morpholino or Morpholino mismatched was administered. The following was evaluated: (i) the expression of AANAT in liver sections and cholangiocytes from the selected groups of animals; and (ii) the effectiveness of the AANAT Vivo-Morpholino in lowering the expression of AANAT in cholangiocytes was determined. […] Data were expressed as relative mRNA levels ±SEM of the selected gene to glyceraldehyde-3-phosphate dehydrogenase (GAPDH) ratio. […]

AANAT [3] = biological target: T1, AANAT (Rattus norvegicus, UniProt Q64666); experiment: Melatonin levels in serum and cholangiocyte supernatant (ELISA) of Morpholino-treated rats; assay type: in vivo; settings: normal rats
T1 construct: the expression of AANAT in liver sections and cholangiocytes from the selected groups of animals; from tissue; host or cells: Male Fischer 344 rats: liver sections, total liver, isolated cholangiocytes, pineal gland, small intestine, serum
T1 sequence (Q64666 whole entry): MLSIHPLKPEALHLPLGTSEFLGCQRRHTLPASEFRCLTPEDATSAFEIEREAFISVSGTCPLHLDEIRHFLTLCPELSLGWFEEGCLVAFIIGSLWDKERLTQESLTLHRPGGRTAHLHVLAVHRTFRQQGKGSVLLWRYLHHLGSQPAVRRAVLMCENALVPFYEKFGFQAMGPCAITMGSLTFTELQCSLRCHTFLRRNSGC
Description: In separate experiments, normal rats treated with Vivo-Morpholino sequences of AANAT (5'-[…] NO:1), to reduce the biliary expression of AANAT) or Morpholino mismatched (5'-[…] NO:2)) (Gene Tools LCC) (1 mg/Kg BW/day) for 1 week via an implanted portal vein catheter. Serum, liver tissue, cholangiocytes, kidney, spleen, small intestine, stomach and heart were collected. Since our goal was to knock-down AANAT expression in the liver without inhibiting AANAT expression in other organs, we used a lower dose (1 mg/Kg/day) of Vivo-Morpholino than that described in the original study (3.0 mg/kg/day (Arora et al., 2002). This approach minimizes the amount of Vivo-Morpholino that circulates outside of the liver after slow infusion into the portal vein. See below for the surgical procedure for the implantation of the portal vein catheter by which AANAT Vivo-Morpholino or Morpholino mismatched was administered. Melatonin levels in serum and medium of primary cultures of isolated cholangiocytes were determined by ELISA kits (Genway, San Diego, Calif.). Supernatants were obtained from cholangiocytes (1×10^7 cells/ml) that were incubated for 6 hours at 37° C. (Glaser et al., 2008).

[4] = normal rats, 1 mg/Kg BW/day 1 week vs. controls

| Compound | Body weight [1] [gm] | Liver to body [1] | Liver weight [1] [gm] | Expression of AANAT in bile ducts (AANAT [2]; BDL rats treated with melatonin (20 mg/L in tap water) 1 week) | Melatonin supernatant (AANAT [3]; cholangiocyte supernatant, 6 hours at 37° C., 1 mg/Kg BW/day for 1 week) | Melatonin serum (AANAT [3]; 1 mg/Kg BW/day for 1 week via portal vein catheter) | AANAT biliary expression (AANAT [2]; [4]) | AANAT mRNA levels in pineal gland and small intestine (AANAT [2]; [4]) |
| --- | --- | --- | --- | --- | --- | --- | --- | --- |
| COc1ccc2[nH]cc(CCNC(C)=O)c2c1 [melatonin] | 35.25 ± 0.73 | 8.01% ± 0.21 | 2.82 ± 0.13 | increased | – | – | – | – |
| AANAT Vivo-Morpholino: Vivo-Morpholino sequence of AANAT 5′-GTTCCCCAGCTTTGGAAGTGGTCCC (SEQ ID NO:1), to reduce the biliary expression of AANAT (all phosphorodiamidate morpholino (PMO); Vivo-Morpholino delivery moiety attached, position not given here, further chemistry not fully specified) | – | – | – | – | 3.2 ± 0.2^a pg/ml | 58.4 ± 8.7^a pg/ml | reduced | increased |
